Reference: article PMC11023993, “Piperine, quercetin, and curcumin identified as promising natural products for topical treatment of cutaneous leishmaniasis” (Parasitology Research, 2024)
Like-named read-outs stand apart in the source and are kept apart here.

Legend:
[1] = MTT cytotoxicity assay in uninfected U-937 macrophages; settings: human
Protocol: (§1) U-937 (CRL-1593.2™) macrophages (ATCC, Manassas, VA, USA) were cultured in RPMI-1640 medium supplemented with 10% of FBS and incubated at 37 °C in 5% CO2, 95% humidity atmosphere. U-937 cells in the exponential growth phase were recovered, and washed by centrifugation at 1800 rpm for 10 min at room temperature; the pellet was then resuspended in supplemented RPMI 1640 medium and counted in a Neubauer chamber. The number was adjusted to 1 × 10^6 cells per mL and 100 µL was dispensed into each well of a 96-well plate. Then, another 100 µL of each serial dilution of QUE, PIP, CUR, doxorubicin, and amphotericin B was added to each well by triplicate and plates were incubated at 37 °C 5% CO2, 95% humidity atmosphere for 48 h.
(§2) The MTT solution is then added to the treated cells, where the yellow MTT is reduced to purple formazan by a variety of mitochondrial and cytosolic enzymes that are operational in viable cells. After 3 h of incubation with MTT, the formazan precipitates. Consequently, the growing medium was removed, the formazan was dissolved in DMSO, and the absorbance of the solution was measured at 570 nm using a microplate reader spectrophotometer (Varioskan Flash, Thermo Fisher Scientific).
(§3) Cells exposed to the standard cytotoxic drug doxorubicin were used as an internal control for toxicity (positive control) while cells incubated in the absence of any compound or drug were used as a control for viability (negative control). A solution of 0.5% DMSO was used as a blank solution. Non-specific absorbance was corrected by subtracting absorbance (OD) of the blank. Determinations were done by triplicate in at least two independent experiments.
(§4) The OD of viable cells that remained after treatment was compared to the OD of control cells that were not exposed to the drug. The LC50 (median lethal concentration) values and their statistical errors were calculated based on triplicates of the measurement in the independent assays. The LC50 values were determined by non-linear regression using Prism GraphPad 10.
(§5) The LC50 and the EC50 were calculated by Probit analysis using GraphPad Prism 10 (San Diego, CA, USA). Both cytotoxicity and leishmanicidal activity were defined by ranges of values of LC50 and EC50 in terms of high, moderate, or low as follows: high cytotoxicity for LC50 values < 100 µM, moderate cytotoxicity for LC50 values > 100 µM but < 200 µM, and low cytotoxicity for LC50 values > 200 µM. […] In addition, the cytotoxicity in U937 macrophages was correlated with the leishmanicidal activity by calculating the Selectivity Index (SI), using the equation: SI = LC50/EC50 (Indrayanto et al. [2021]).

[2] = tested on: intracellular amastigotes of L. braziliensis; experiment: In vitro leishmanicidal activity against intracellular amastigotes in infected U-937 macrophages (flow cytometry); type: cell-based, Leishmania braziliensis; settings: for SI (Selectivity Index = LC50/EC50): LC50 U-937 / EC50 L. braziliensis amastigotes; for EC50: Leishmania braziliensis; for Leishmanicidal activity: class by EC50 on intracellular amastigotes of L. braziliensis
Protocol: Infective L. braziliensis (MHOM/CO/88/UA301-eGFP) (Pulido et al. [2012]) were cultured in Novy-MacNeal-Nicolle (NNN) biphasic medium at 26 °C for 3 passages maximum. U-937 cells, prepared as described in the previous section, were adjusted to approximately 3 × 10^5 cells per mL of supplemented RPMI 1640 medium containing […] of PMA to induce cell adherence. One mL was dispensed into each well of a 24-well plate and platters were incubated at 37 °C in % CO2, 95% humidity atmosphere for 72 h. Then, adherent cells were infected with fluorescent promastigotes of L. braziliensis in a 15:1 parasite to cell ratio. Plates were incubated again at 34 °C and % CO2, 95% humidity atmosphere. After 24 h, non-phagocytosed parasites were washed by pipetting phosphate buffered solution (PBS) in the plate at room temperature and 500 µL of fresh complete RPMI 1640 medium was added. Then, 500 µL of each serial dilution of QUE, PIP, CUR, and amphotericin B was added to each well and plates were incubated at 34 °C with % CO2, 95% humidity atmosphere. The EC50, the median effective concentration to induce […] killing of the intracellular amastigotes in infected cells, was measured by Flow cytometry at 488 nm of excitation and 525 nm of emission. After 48 h of incubation, cells were harvested with cold dissociation buffer (1x PBS with 2% EDTA) and the harvested cells were washed with buffer (1 × PBS with 2% FBS), and results were analyzed by FlowJo 10. The EC50 was determined with a non-lineal regression using Prism GraphPad 10.
as §5

L. braziliensis = tested on: L. braziliensis
From the text: Golden hamsters (Mesocricetus auratus) were purchased from Charles River Laboratories (Wilmington MA, USA) and bred under specific pathogen-free conditions at the animal facility unit of the Universidad de Antioquia in Medellín, Colombia. Six- to eight-week-old, male, and female hamsters were used for the experiments. Animal experimentation protocols including handling of the animals, sample collection, and euthanasia were done in compliance of the Center for Diseases Control and Prevention guidelines for Safe Work Practices in Human and Animal Medical Diagnostic Laboratories and ARRIVE guidelines (Percie du Sert et al. [2020b]; Khairani et al. [2022]) and approved by the Institutional Ethical Committee for animal experimentation (Act No. 152 of June 01, 2023) (Percie du Sert et al. [2020a]; Khairani et al. [2022]).
Hamsters were anesthetized with ketamine (80 mg/kg, i.p.) and xylazine (15 mg/Kg) before infection and then, ∼1 × 10^8 promastigotes in stationary phase (6 days-old growth) were inoculated into the dorsum dermis (Robledo et al. [2012]). When hamsters developed ulcers larger than 12.5 mm^2, hamsters were randomly distributed into 4 groups (n = 6, each): (1) group treated with QUE (1 mg/day), (2) group treated with PIP (2.5 mg/day), (3) group treated with CUR (1.5 mg/day), (4) group treated with meglumine antimoniate (treatment control group, 200 µg/mL, intralesional). No vehicle control group was included in the present study because castor oil additive is a nonionic surfactant commonly used as an excipient in pharmaceutical formulations, particularly in solubilizing poorly water-soluble drugs. It is widely used as an ingredient in cosmetics for its conditioning properties, based on occlusive action, reducing water loss, and having a nourishing effect on the skin, hair, and nails (Marwat et al. [2017]; Khairani et al. [2022]).
Hamsters were treated daily with 40 µL of the corresponding formulation for 2 weeks, applying it directly over the lesion, while hamsters treated with meglumine antimoniate received treatment three times per week for 4 weeks. Lesion area was measured every week for 90 days with an electronic digital caliper. The body weight gain or loss was supervised every 2 weeks during the study. At the end of the study, hamsters were euthanized with an i.p. injection of ketamine (600 mg/kg) and xylazine (30 mg/kg). The experiments were carried out under normal laboratory lighting conditions. After necropsy, biopsies from healed and unhealed ulcers were removed and fixed in 10% buffered formalin, processed, and stained with hematoxylin–eosin (H-E) stain for histopathology analysis. The changes were analyzed under a standard optical microscope.

U-937 cells = experiment: MTT cytotoxicity assay in uninfected U-937 macrophages; settings: class by LC50 in U-937 macrophages
Protocol: as §1, §2, §3, §4, §5

[3] = tested on: L. amazonensis amastigotes; design: method as in Ferreira et al. [2011]; settings: ref Ferreira et al. [2011], read-out: EC50 for the amastigote stage; cited from earlier work
[4] = tested on: L. braziliensis-induced cutaneous leishmaniasis ulcers; experiment: Histopathological analysis (H-E) of healed ulcers from treated hamsters; type: in vivo, golden hamsters (Mesocricetus auratus); design: key to Dermis: oedema (grade) / Dermis: granulomatous inflammation (grade) / Epidermis: orthokeratotic hyperkeratosis (grade) / Epidermis: spongiosis (grade) / Epidermis: ulcer (grade) / Dermis: neovascularization (grade) / Dermis: fibroplasia (grade) / Dermis: leukocytic infiltrate (grade): 0, absent; 1, mild; 2, mild to moderate; 3, moderate; 4, moderate to severe; 5, severe; settings: healed ulcer after topical treatment
Protocol: The changes were analyzed under a standard optical microscope.

macrophages = tested on: macrophages; design: method as in Ferreira et al. [2011]; settings: ref Ferreira et al. [2011]; cited from earlier work
[5] = intracellular amastigotes of L. braziliensis in U-937 macrophages, 48 h, read-out: EC50 (Median Effective Concentration)
[6] = intralesional 200 µg/mL three times per week for 4 weeks, n = 6
[7] = intralesional 200 µg/mL, individual hamster
[8] = topical in castor oil daily for 15 days, QUE 1 mg/day, CUR 1.5 mg/day, PIP 2.5 mg/day, n = 6, followed 90 days

## C[C@@H]1[C@H](O)[C@@H](C)/C=C/C=C/C=C/C=C/C=C/C=C/C=C/[C@H](O[C@@H]2O[C@H](C)[C@@H](O)[C@H](N)[C@@H]2O)C[C@@H]2O[C@](O)(C[C@@H](O)C[C@@H](O)[C@H](O)CC[C@@H](O)C[C@@H](O)CC(=O)O[C@H]1C)C[C@H](O)[C@H]2C(=O)O [AMB, Amphotericin B, reference compound]
[1]
  CC50 at 48 h: 56.1 ± 5.8 µM
[2]
  SI (Selectivity Index = LC50/EC50): 172.7
  Leishmanicidal activity: High (high activity corresponds to EC50 values < 50 µM)
[2]; [5]
  EC50: 0.32 ± 0.01 µM

## meglumine antimoniate [reference compound]
L. braziliensis; [6]
  number of hamsters cured: 4 hamsters
  therapeutic response (hamsters cured): 67%
L. braziliensis; [7]
  increase of lesion in uncured hamster: 80%
  reduction in the lesion size in uncured hamster: 14%

## O=C(/C=C/C=C/c1ccc2c(c1)OCO2)N1CCCCC1 [Piperine, piperine]
[1]
  CC50 at 48 h: > 701 µM
U-937 cells
  Cytotoxicity: Low (low cytotoxicity for LC50 values > 200 µM)
[3]
  EC50: 28 µM
[2]
  SI (Selectivity Index = LC50/EC50): > 80
  Leishmanicidal activity: High (high activity corresponds to EC50 values < 50 µM)
[2]; U-937, amastigote stage of L. braziliensis, read-out: in vitro antileishmanial activity (EC50 in mass units)
  EC50: 2.5 ± 0.4 µg/mL
[2]; U-937, read-out: effective concentration (in vitro leishmanicidal activity)
  EC50: 8 µM
[2]; [5]
  EC50: 8.76 ± 1.4 µM
[4]
  Dermis: fibroplasia (grade): 2
  Dermis: granulomatous inflammation (grade): 0
  Dermis: leukocytic infiltrate (grade): 2
  Dermis: neovascularization (grade): 2
  Dermis: oedema (grade): 1
  Epidermis: orthokeratotic hyperkeratosis (grade): 2
  Epidermis: spongiosis (grade): 2
  Epidermis: ulcer (grade): 0
macrophages
  toxicity towards macrophages: non-toxicity
L. braziliensis; [8]
  therapeutic response (hamsters cured): 67%

## Castor oil
L. braziliensis; hamster, in vivo
  resolution of CL lesions: has not shown resolution of the lesions

## COc1cccc2c1C(=O)c1c(O)c3c(c(O)c1C2=O)C[C@@](O)(C(=O)CO)C[C@@H]3O[C@H]1C[C@H](N)[C@H](O)[C@H](C)O1 [DOXO, Doxorubicin, reference compound]
[1]
  CC50 at 48 h: 1.47 ± 0.06 µM

## COc1cc(/C=C/C(=O)CC(=O)/C=C/c2ccc(O)c(OC)c2)ccc1O [Curcumin, curcumin]
[1]
  CC50 at 48 h: > 543 µM
[2]
  SI (Selectivity Index = LC50/EC50): > 17.4
  Leishmanicidal activity: High (high activity corresponds to EC50 values < 50 µM)
[2]; listed as CUR
  SI (Selectivity Index = LC50/EC50): exceeds 10
[2]; U-937, read-out: in vitro antileishmanial activity (EC50 in mass units)
  EC50: 11.4 ± 0.1 µg/mL
[2]; [5]
  EC50: 30.9 ± 0.3 µM
[4]
  Dermis: fibroplasia (grade): 2
  Dermis: granulomatous inflammation (grade): 0
  Dermis: leukocytic infiltrate (grade): 2
  Dermis: neovascularization (grade): 4
  Dermis: oedema (grade): 1
  Epidermis: orthokeratotic hyperkeratosis (grade): 2
  Epidermis: spongiosis (grade): 1
  Epidermis: ulcer (grade): 0
L. braziliensis; topical 1.5 mg/day for 15 days, n = 6
  number of hamsters cured: 5 hamsters
L. braziliensis; topical daily for 15 days, n = 6
  treatment failures: one hamster failed treatment
L. braziliensis; [8]
  therapeutic response (hamsters cured): 83%
